pEC50: −log10 of the molar value. Where two headings read alike, the source gives them in different places.
Molecular target: T1, human mGluR5A (Homo sapiens, UniProt P41594)
T1 construct: expressed in transfected cells
Assay: FLIPR Ca2+ mobilization assay, potentiation in the presence of 300 nM glutamate (EC20)
Type: cell-based
Source text: The utility of the compounds in accordance with the present invention as positive allosteric modulators of metabotropic glutamate receptor activity, in particular mGluR5 activity, may be readily determined without undue experimentation by methodology well known in the art, including O'Brien et al., Molecular Pharmacology 2003, 64(3) 731-740. In particular, the compounds of the following examples had activity in reference assays by enhancing mGluR5 activity. […] Changes in intracellular Ca^2+ were measured with Fluo-4AM ester (Invitrogen/Molecular Probes), which was detected on a Fluorometric Imaging Plate Reader (FLIPR, Molecular Devices, Sunnyvale, Calif.). In a typical experiment the mGluR5 positive allosteric modulatory activity of the compounds of the present invention was determined in accordance with the following experimental method.
Cell Culture: Chinese Hamster Ovary (CHO) cells expressing human mGluR5A were maintained in growth medium containing DMEM, 10% dialyzed Fetal Bovine Serum, 50 units/mL Penicillin, 50 ug/mL Streptomycin, 2 mM L-glutamine, 1×MEM non-essential amino acids, 1 mM sodium pyruvate, 25 mM HEPES, 55 uM 2-mercaptoethanol, 5 ug/mL Puromycin, and 250 ug/mL Zeocin at 37° C. and 5% CO2. The day before the experiment, the cells were washed and seeded in “plating media” containing only DMEM, 10% dialyzed Fetal Bovine Serum, 50 units/mL Penicillin, and 50 ug/mL Streptomycin at a density of 50,000 cells/well (100 uL/well) in black 384-well clear-bottom PDL-coated plates. The cells were grown overnight at 37° C. and 6% CO2. This overnight glutamine/glutamate starvation allowed for consistent expression of the mGluR5A receptor, and the ability to add a known amount of agonist (glutamate in most cases) on the day of the experiment.
Fluorescent Ca^2+ mobilization (FLIPR) assay: The day of the experiment, the cells were washed with 37° C. Assay Buffer (Hanks Balanced Salt Solution with CaCl2 and MgCl2, 20 mM HEPES, 2.5 mM Probenecid, 0.1% BSA) with an automated plate washer (3×100 uL, aspiration 3 mm from bottom leaving ˜30 uL of buffer in each well). After washing, 30 uL of dye loading buffer (4 uM Fluo-4AM, 0.04% Pluronic acid, and 1% dialyzed FBS in assay buffer) were added to each well of the plates for 2 uM Fluo-4AM final concentration. The plates were incubated at 37° C. and 6% CO2 for 1 hour to allow for dye loading. After dye loading, the cells were washed again as above, and placed on the FLIPR. Assays were conducted with two possible scenarios: 1) To determine the potencies of the compounds, as either agonists of mGluR5 or potentiators of mGluR5 in the presence of a sub-threshold amount of glutamate, 10-point titrations of the compounds (1:3 dilution between each point, 30-0.0015 uM final concentrations) were added to the cells, followed by the addition of the EC20 of glutamate (300 nM) to the cells. 2) To determine the cooperativity of the compounds with the natural agonist (glutamate), single concentrations of the compounds were added to the cells, followed by the addition of a 10-point titration of glutamate (1:3 dilution between each point, 1000-0.05 uM final concentrations). […] For both scenarios above, operation of the FLIPR was the same. Baseline fluorescence was monitored for 10 seconds, followed by the addition of compounds diluted in Assay Buffer (1% DMSO concentration after this addition, 0.66% final DMSO concentration after agonist addition). After monitoring fluorescence for 5 minutes, during which time any intrinsic agonist activity of the compounds would have been detected, the agonist (glutamate) also diluted in assay buffer was then added to the cells. The response was then monitored for an additional 3 minutes. In scenario #1, the peak during the final 3 minutes was used for potentiator data, and the peak during the 5 minutes post compound addition was used for compound agonist data. […]

[1] = potentiation in presence of 300 nM glutamate, read-out: EC50 in potentiating/enhancing the mGluR5 receptor in the FLIPR assay
[2] = potentiation, CHO cells expressing human mGluR5A, in presence of 300 nM glutamate, inflection points, read-out: FLIPR EC50

T1 sequence (P41594 21-1180 isoform P41594-2 limits assumed): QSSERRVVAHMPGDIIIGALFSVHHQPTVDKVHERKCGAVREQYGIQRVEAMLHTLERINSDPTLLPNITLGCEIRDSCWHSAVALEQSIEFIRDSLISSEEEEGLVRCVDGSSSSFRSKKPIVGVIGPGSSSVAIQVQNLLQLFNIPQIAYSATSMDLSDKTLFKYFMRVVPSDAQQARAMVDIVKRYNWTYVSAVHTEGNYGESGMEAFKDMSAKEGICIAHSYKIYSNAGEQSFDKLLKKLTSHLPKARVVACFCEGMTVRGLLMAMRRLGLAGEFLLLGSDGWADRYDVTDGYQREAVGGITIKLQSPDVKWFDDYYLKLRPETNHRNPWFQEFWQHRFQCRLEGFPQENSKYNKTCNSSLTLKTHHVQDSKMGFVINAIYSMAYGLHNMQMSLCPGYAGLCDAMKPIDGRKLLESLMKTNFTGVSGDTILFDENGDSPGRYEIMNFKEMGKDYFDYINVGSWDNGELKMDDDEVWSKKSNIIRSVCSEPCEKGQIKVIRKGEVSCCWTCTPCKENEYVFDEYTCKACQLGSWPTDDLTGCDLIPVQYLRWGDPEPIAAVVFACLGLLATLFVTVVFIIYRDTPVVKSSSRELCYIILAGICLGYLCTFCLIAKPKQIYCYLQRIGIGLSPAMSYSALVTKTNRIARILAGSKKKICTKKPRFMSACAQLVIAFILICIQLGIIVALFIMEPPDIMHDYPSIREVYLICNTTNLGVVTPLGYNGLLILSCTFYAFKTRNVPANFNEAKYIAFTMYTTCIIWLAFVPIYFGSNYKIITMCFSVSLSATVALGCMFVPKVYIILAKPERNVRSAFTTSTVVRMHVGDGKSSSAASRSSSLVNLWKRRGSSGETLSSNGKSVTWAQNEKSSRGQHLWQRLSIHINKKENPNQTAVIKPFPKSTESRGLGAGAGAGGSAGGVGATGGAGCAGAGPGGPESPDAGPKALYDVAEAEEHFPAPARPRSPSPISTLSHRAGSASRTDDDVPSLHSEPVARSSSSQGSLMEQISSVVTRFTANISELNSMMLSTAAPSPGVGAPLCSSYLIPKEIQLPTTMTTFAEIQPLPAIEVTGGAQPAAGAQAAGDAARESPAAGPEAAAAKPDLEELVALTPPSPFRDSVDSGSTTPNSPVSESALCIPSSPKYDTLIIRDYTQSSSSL

Row | SMILES | pEC50 [1] | pEC50 [2]
1 | C[C@@H]1CC[C@H](c2noc(-c3ccc(F)cc3)n2)CN1C(=O)c1ccc(F)cc1 [Example 1-16, (2R,5S)-1-(4-fluorobenzoyl)-5-[5-(4-fluorophenyl)-1,2,4-oxadiazol-3-yl]-2-methylpiperidine] | > 6.00 | 6.91
2 | C[C@H]1CC[C@@H](c2noc(-c3cc(Cl)c[nH]3)n2)CN1C(=O)c1ccc(F)cc1 [Example 2-3, (2S,5R)-5-[5-(4-chloro-1H-pyrrol-2-yl)-1,2,4-oxadiazol-3-yl]-1-(4-fluorobenzoyl)-2-methylpiperidine] | > 6.00 | 6.31
3 | C[C@@H]1CC[C@H](c2noc(-c3ccc(F)cn3)n2)CN1C(=O)c1ccc(F)cc1 [Example 4-4, 5-Fluoro-2-{3-[(3S,6R)-1-(4-fluorobenzoyl)-6-methylpiperidin-3-yl]-1,2,4-oxadiazol-5-yl}pyridine] | > 6.00 | 6.68
4 | C[C@@H]1CC[C@H](c2noc(-c3cc(Cl)c[nH]3)n2)CN1C(=O)c1ccc(F)nc1 [Example 9-9, 5-({(2R,5S)-5-[5-(4-chloro-1H-pyrrol-2-yl)-1,2,4-oxadiazol-3-yl]-2-methylpiperidin-1-yl}carbonyl)-2-fluoropyridine] | > 6.00 | 6.84
5 | COc1cc(C(=O)N2C[C@@H](c3nc(-c4cc(Cl)c[nH]4)no3)CC[C@H]2C)ccn1 [Example 9-22, 4-({(2R,5S)-5-[3-(4-chloro-1H-pyrrol-2-yl)-1,2,4-oxadiazol-5-yl]-2-methylpiperidin-1-yl}carbonyl)-2-methoxypyridine] | > 6.00 | 7.26

The remaining lines, values ahead:

Row | pEC50 [1] | pEC50 [2] | SMILES
6 | > 6.00 | 7.60 | C[C@@H]1CC[C@H](c2noc(-c3cc(Cl)c[nH]3)n2)CN1C(=O)c1ccc(F)cc1 [Example 2-4, (2R,5S)-5-[5-(4-chloro-1H-pyrrol-2-yl)-1,2,4-oxadiazol-3-yl]-1-(4-fluorobenzoyl)-2-methylpiperidine]
7 | > 6.00 | 7.72 | C[C@@H]1CC[C@H](c2nc(-c3cc(Cl)c[nH]3)no2)CN1C(=O)c1ccc(F)cc1 [Example 5-5, (2R,5S)-5-[3-(4-Chloro-1H-pyrrol-2-yl)-1,2,4-oxadiazol-5-yl]-1-(4-fluorobenzoyl)-2-methylpiperidine]
8 | > 6.00 | 7.04 | C[C@@H]1CC[C@H](c2nc(-c3cc(Cl)c[nH]3)no2)CN1C(=O)c1ccc(F)nc1 [Example 9-18, 5-({(2R,5S)-5-[3-(4-chloro-1H-pyrrol-2-yl)-1,2,4-oxadiazol-5-yl]-2-methylpiperidin-1-yl}carbonyl)-2-fluoropyridine]

Reference: patent US20120040998A1, “2-ALKYL PIPERIDINE MGLUR5 RECEPTOR MODULATORS” (priority 2009, published 2012)
